From patent publication US20240293413A1, “COMPOUND AND METHOD FOR TREATING CHEMOTHERAPY-RELATED GASTROINTESTINAL SIDE EFFECTS” (ONQUALITY PHARMACEUTICALS CHINA LTD., priority 2021, published 2024)

What was measured:
Assay type in all cases: in vivo
[1] = test system: diarrhea caused by a chemotherapeutic agent in Balb/c mice; assay: Examples 382-405 (Table 7): various administration modes of the CDK inhibitor, relief of diarrhea caused by a chemotherapeutic agent
Description: Balb/c mice were fed for 1 week, and then divided into groups. The experiment was divided into a control group, a chemotherapeutic agent group, CDK inhibitor groups (including an oral administration group of a CDK inhibitor, an intraperitoneal injection group of a CDK inhibitor, an intramuscular injection group of a CDK inhibitor, a local administration group of a CDK inhibitor), each of which comprised 10 mice, to perform the administration experiment, for which the administration dosage, mode, time and frequency were shown in Table 7. The control group: being administered with the same solvent as that used in the CDK inhibitor group (the time and mode were shown in Table 7), and then being injected/intragastrically administered with the same solvent as that used in the chemotherapeutic agent group (the administration mode was shown in Table 7): the chemotherapeutic agent group: being administered with the same solvent as that used in the CDK inhibitor group (the time and mode were shown in Table 7), and then being injected/intragastrically administered with the chemotherapeutic agent (the type, administration mode and dosage were shown in Table 7): the oral administration group of the CDK inhibitor: being intragastrically administered with the CDK inhibitor (the time was shown in Table 7), and then being administered with the chemotherapeutic agent (the mode and dosage were shown in Table 7): the intraperitoneal injection group of the CDK inhibitor: being intraperitoneally injected with the CDK inhibitor (the time was shown in Table 7), and then being administered with the chemotherapeutic agent (the mode and dosage were shown in Table 7): the intramuscular injection group of the CDK inhibitor: being intramuscularly injected with the CDK inhibitor (the time was shown in Table 7), and then being administered with the chemotherapeutic agent (the mode and dosage were shown in Table 7); and the local administration group of the CDK inhibitor: the hair on the abdomen of mice was shaved (about 2 cm*2 cm), being applied with the CDK inhibitor (the time was shown in Table 7), and then being administered with the chemotherapeutic agent (the mode and dosage were shown in Table 7).
The diarrhea grading of mice was observed and recorded every day.

[2] = test system: Chemotherapeutic agent-caused constipation models of Balb/c mice; assay: Examples 272-342 (Table 5): oral CDK inhibitor, relief of constipation caused by a chemotherapeutic agent;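 further: percent of treated mice relieved versus chemotherapy group by feces reduction rate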
Summary of the method: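 Balb/c mice, 10 per group: control, chemotherapeutic agent alone, or intragastric CDK inhibitor followed by the chemotherapeutic agent. Feces produced within 3 hours were recorded daily, and feces reduction rate (%) was calculated relative to the control group.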

[3] = test system: constipation caused by a chemotherapeutic agent in Balb/c mice; assay: Examples 406-443 (Table 8): various administration modes of the CDK inhibitor, relief of constipation caused by a chemotherapeutic agent;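 on Relative remission rate of oral administration: percent of treated mice relieved versus chemotherapy group by feces reduction rate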;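 on Relative remission rate of other administration mode: percent of treated mice relieved versus chemotherapy group by feces reduction rate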
Summary of the method: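 Balb/c mice (10 per group) received the CDK inhibitor orally, intravenously via the tail vein, intraperitoneally, intramuscularly, or topically on shaved abdominal skin, followed by a chemotherapeutic agent; vehicle groups served as controls. Feces amount over 3 h was recorded daily. Feces reduction rate was calculated relative to the control group.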

Q: Which results are given for CN(C)C(=O)c1cc2cnc(Nc3ccc(N4CCNCC4)cn3)nc2n1C1CCCC1 [Ribociclib]?
A: Relative remission rate of other administration mode ([1]; Example 389, Carboplatin (CBP) intraperitoneal injection 120 mg/kg single, CDK inhibitor intraperitoneal injection 200 mg/kg single, 0.5 h before, cycle 10 days): 10%; Relative remission rate of oral administration ([1]; Example 389, Carboplatin (CBP) intraperitoneal injection 120 mg/kg single, CDK inhibitor oral 200 mg/kg single, 0.5 h before, cycle 10 days): 30%; Relative remission rate of other administration mode ([1]; Example 390, Carboplatin (CBP) intraperitoneal injection 120 mg/kg single, CDK inhibitor intraperitoneal injection 200 mg/kg single, 4 h before, cycle 10 days): 10%; Relative remission rate of oral administration ([1]; Example 390, Carboplatin (CBP) intraperitoneal injection 120 mg/kg single, CDK inhibitor oral 200 mg/kg single, 4 h before, cycle 10 days): 50%; Relative remission rate of other administration mode ([1]; Example 391, Carboplatin (CBP) intraperitoneal injection 120 mg/kg single, CDK inhibitor intraperitoneal injection 200 mg/kg single, 8 h before, cycle 10 days): 10%; Relative remission rate of oral administration ([1]; Example 391, Carboplatin (CBP) intraperitoneal injection 120 mg/kg single, CDK inhibitor oral 200 mg/kg single, 8 h before, cycle 10 days): 50%; Relative remission rate of other administration mode ([1]; Example 392, Carboplatin (CBP) intraperitoneal injection 120 mg/kg single, CDK inhibitor intraperitoneal injection 200 mg/kg single, 12 h before, cycle 10 days): 20%; Relative remission rate of oral administration ([1]; Example 392, Carboplatin (CBP) intraperitoneal injection 120 mg/kg single, CDK inhibitor oral 200 mg/kg single, 12 h before, cycle 10 days): 40%; Relative remission rate of other administration mode ([1]; Example 393, Carboplatin (CBP) intraperitoneal injection 120 mg/kg single, CDK inhibitor intraperitoneal injection 200 mg/kg single, 24 h before, cycle 10 days): 10%; Relative remission rate of oral administration ([1]; Example 393, Carboplatin (CBP) intraperitoneal injection 120 mg/kg single, CDK inhibitor oral 200 mg/kg single, 24 h before, cycle 10 days): 40%; Relative remission rate of other administration mode ([1]; Example 401, Gemcitabine (GEM) oral administration 300 mg/kg single, CDK inhibitor local administration 100 mg/kg single, 24 h before, cycle 8 days): 20%; Relative remission rate of oral administration ([1]; Example 401, Gemcitabine (GEM) oral administration 300 mg/kg single, CDK inhibitor oral 100 mg/kg single, 24 h before, cycle 8 days): 50%; relief of diarrhea by oral, injection and local administration ([1]; diarrhea caused by docetaxel, carboplatin, gemcitabine, and gemcitabine plus carboplatin, under certain conditions, effect of oral administration most significant): can relieve diarrhea; Relative remission rate ([2]; Example 294, Fluorouracil (5-Fu) intravenous injection 225 mg/kg single, CDK inhibitor oral 150 mg/kg single, 0.5 h before, cycle 7 days): 50%; Relative remission rate ([2]; Example 302, Oxaliplatin intravenous injection 20 mg/kg single, CDK inhibitor oral 150 mg/kg single, 1 h before, cycle 8 days): 50%; Relative remission rate ([2]; Example 310, Irinotecan (CPT-11) oral administration 300 mg/kg single, CDK inhibitor oral 100 mg/kg single, 20 h before, cycle 11 days): 50%; Relative remission rate ([2]; Example 325, Gemcitabine and paclitaxel intravenous injection 60 (G) 10 (P) mg/kg single, CDK inhibitor oral 125 mg/kg single, 0.5 h before, cycle 8 days): 50%; Relative remission rate ([2]; Example 336, Methotrexate (MTX) intravenous injection 300 mg/kg single, CDK inhibitor oral 125 mg/kg single, 0.5 h before, cycle 7 days): 40%; Relative remission rate ([2]; Example 337, Methotrexate (MTX) intravenous injection 300 mg/kg single, CDK inhibitor oral 125 mg/kg single, 4 h before, cycle 7 days): 40%; Relative remission rate ([2]; Example 338, Methotrexate (MTX) intravenous injection 300 mg/kg single, CDK inhibitor oral 125 mg/kg single, 8 h before, cycle 7 days): 50%; Relative remission rate ([2]; Example 339, Methotrexate (MTX) intravenous injection 300 mg/kg single, CDK inhibitor oral 125 mg/kg single, 12 h before, cycle 7 days): 30%; Relative remission rate ([2]; Example 340, Methotrexate (MTX) intravenous injection 300 mg/kg single, CDK inhibitor oral 125 mg/kg single, 24 h before, cycle 7 days): 60%; Relative remission rate ([2]; Example 341, Methotrexate (MTX) intravenous injection 300 mg/kg single, CDK inhibitor oral 125 mg/kg single, 48 h before, cycle 7 days): 0%; Relative remission rate of other administration mode ([3]; Example 424, Carboplatin intraperitoneal injection 120 mg/kg single, CDK inhibitor intraperitoneal injection 200 mg/kg single, 0.5 h before, cycle 10 days): 10%; Relative remission rate of oral administration ([3]; Example 424, Carboplatin intraperitoneal injection 120 mg/kg single, CDK inhibitor oral 200 mg/kg single, 0.5 h before, cycle 10 days): 20%; Relative remission rate of other administration mode ([3]; Example 425, Carboplatin intraperitoneal injection 120 mg/kg single, CDK inhibitor intraperitoneal injection 200 mg/kg single, 4 h before, cycle 10 days): 10%; Relative remission rate of oral administration ([3]; Example 425, Carboplatin intraperitoneal injection 120 mg/kg single, CDK inhibitor oral 200 mg/kg single, 4 h before, cycle 10 days): 30%; Relative remission rate of other administration mode ([3]; Example 426, Carboplatin intraperitoneal injection 120 mg/kg single, CDK inhibitor intraperitoneal injection 200 mg/kg single, 8 h before, cycle 10 days): 20%; Relative remission rate of oral administration ([3]; Example 426, Carboplatin intraperitoneal injection 120 mg/kg single, CDK inhibitor oral 200 mg/kg single, 8 h before, cycle 10 days): 50%; Relative remission rate of other administration mode ([3]; Example 427, Carboplatin intraperitoneal injection 120 mg/kg single, CDK inhibitor intraperitoneal injection 200 mg/kg single, 12 h before, cycle 10 days): 20%; Relative remission rate of oral administration ([3]; Example 427, Carboplatin intraperitoneal injection 120 mg/kg single, CDK inhibitor oral 200 mg/kg single, 12 h before, cycle 10 days): 50%; Relative remission rate of other administration mode ([3]; Example 428, Carboplatin intraperitoneal injection 120 mg/kg single, CDK inhibitor intraperitoneal injection 200 mg/kg single, 24 h before, cycle 10 days): 10%; Relative remission rate of oral administration ([3]; Example 428, Carboplatin intraperitoneal injection 120 mg/kg single, CDK inhibitor oral 200 mg/kg single, 24 h before, cycle 10 days): 40%; Relative remission rate of other administration mode ([3]; Example 435, Gemcitabine oral administration 300 mg/kg single, CDK inhibitor local administration 100 mg/kg single, 24 h before, cycle 8 days): 20%; Relative remission rate of oral administration ([3]; Example 435, Gemcitabine oral administration 300 mg/kg single, CDK inhibitor oral 100 mg/kg single, 24 h before, cycle 8 days): 50%; improvement of constipation by oral administration, intraperitoneal injection, intramuscular injection, local administration ([3]; constipation caused by doxorubicin, etoposide, etoposide plus cisplatin, carboplatin, gemcitabine, gemcitabine plus carboplatin, under certain conditions, oral most significant): can significantly improve constipation
